According to patent US20260041703A1, “HYPERBRANCHED DEXTRINS FOR TOPICAL USE IN THE PREVENTION OR TREATMENT OF AT LEAST ONE SYMPTOM OF SKIN INFLAMMATION” (ROQUETTE FRERES, priority 2022, published 2026):

Tests used:
[1] = tested on: IL-1α; assay: Semi-quantitative fluorescence cytokine array (Human Cytokine Array G3), IL-1α; assay type: cell-based; conditions: 0.5% SLS positive control (6 hours); fluorescent signal intensity
Procedure: (§1) Cell culture supernatants collected after epidermal treatment are tested using the Human Cytokine Array G3 kit (RayBiotech).
(§2) On a glass slide containing the different specific antibodies, supernatants are deposited at a rate of 100 μL per well. A cocktail of biotin-coupled secondary antibodies is then added. With the addition of streptavidin, signal intensities are detected by fluorescence. Each step is followed by several washes.
(§3) The ratios (fluorescent signal intensity of the marker in the presence of the samples/fluorescent signal intensity of the marker in the untreated control) were calculated for each treatment from n=3 epidermal culture supernatants (except for the untreated control, n=2).
(§4) A ratio >1.5 reflects overexpression of the inflammatory marker.
(§5) A ratio <0.65 indicates underexpression of the inflammatory marker.
(§6) According to the supplier's criteria, signals are usable when they are greater than the average of the background noise+2SD.

[2] = tested on: RANTES; assay: Semi-quantitative fluorescence cytokine array (Human Cytokine Array G3), RANTES; assay type: cell-based; conditions: 0.5% SLS positive control (6 hours)
Procedure: as §1, §2, §3, §4, §5, §6

[3] = tested on: IL-1α; assay: ELISA assay of inflammation marker IL-1α in supernatant of 2D reconstructed human epidermis; conditions: 0.5% SLS positive control (6 hours)
Procedure: This model comprises a monolayer of normal human epidermal keratinocytes (NHEK, one of the main cell types of the skin), which have been cultured on inert polycarbonate inserts.
The epidermises were treated with a 0.5% aqueous solution of Sodium Lauryl Sulfate (SLS) for 6 hours to create inflammation of the reconstructed epidermis, then the surface of the epidermises was rinsed with 500 μL of PBS. 20 μL of different concentrations of hydrogenated and highly branched dextrins (10 and 5% in ultrapure water) and 0.05% Betamethasone cream (Biogaran cream, a corticoid with an anti-inflammatory role) were applied topically to the epidermis for 20 hours at 37° C. No application was made for the SLS control within 20 hours of rinsing with PBS. […]
For this, cell supernatants are collected after the required treatment time and commercially available ELISA kits are used to quantitatively determine the presence of inflammatory markers.
These ELISA kits are designed for quantitative measurement of the aforementioned markers, particularly in culture supernatants using specific human antibodies. […] A developer solution changes the color from blue to yellow, and its intensity is measured at 450 nm using the Molecular Devices Vmax microplate reader. Absorbance values are recorded and analyzed using SOFTmax PRO v4.7.1 software. […]

[4] = tested on: reconstructed human epidermis (normal human epidermal keratinocytes, NHEK); assay: MTT cell proliferation (viability) test on 2D reconstructed human epidermis after SLS inflammation; assay type: cell-based; conditions: % of untreated control
Procedure: Irritating chemical compounds are able to penetrate the stratum corneum and are cytotoxic to cells in the underlying layers. […] Cell viability is measured upon metabolism, by mitochondrial succinic dehydrogenase, of the vital dye MTT [3-(4,5-dimethylthiazol-2-yl)-2,5-bromide diphenyltetrazolium, thiazolyl blue; EINECS number 206-069-5, CAS number 298-93-1)], to a blue formazan salt which is measured quantitatively after its extraction from tissues.
The colored solution is measured spectrophotometrically at 570 nm using the Molecular Devices Vmax microplate reader, and absorbance values are recorded using the SOFTmax PRO v4.7.1 software. Statistical analysis is performed using GraphPad Prism v5.03 software.
Cytotoxicity of samples was tested using the epidermis model and is expressed as a percentage of untreated control (UTC) tissue.

[5] = tested on: IL-8; assay: ELISA assay of inflammation marker IL-8 in supernatant of 2D reconstructed human epidermis; assay type: cell-based; conditions: 0.5% SLS positive control (6 hours)
Source text: After washing, HRP-streptavidin is deposited in the wells. […] The inflammatory response is interpreted as a sample-to-untreated ratio greater than or equal to 2.
A ratio greater than or equal to 2 reflects overexpression of the inflammatory marker while a ratio less than 2 indicates non-expression of the inflammatory marker.

[6] = tested on: IL-1β; assay: Semi-quantitative fluorescence cytokine array (Human Cytokine Array G3), IL-1β; assay type: cell-based; conditions: 0.5% SLS positive control (6 hours)
Procedure: as §1, §2, §3, §4, §5, §6

[7] = tested on: VEGF; assay: Semi-quantitative fluorescence cytokine array (Human Cytokine Array G3), VEGF; assay type: cell-based; conditions: 0.5% SLS positive control (6 hours)
Procedure: as §1, §2, §3, §4, §5, §6

[8] = tested on: 3D reconstructed human epidermis; assay: Membrane integrity (LDH release, colorimetry) in 3D reconstructed human epidermis model; assay type: cell-based
Source text: The aim of the study was to assess the membrane integrity of skin cells in a three-dimensional (3D) reconstructed human epidermis model, by measuring the amount of the enzyme lactate dehydrogenase (LDH) in the culture supernatant, using colorimetry. LDH is an enzyme that is released in the event of cell death. The absence of LDH secretion is a sign that the integrity of epidermal cell membranes is preserved. Samples of 3D reconstructed human epidermis were immersed in an aqueous solution containing 0.5% by weight of sodium lauryl sulfate, for 6 hours. […] The amount of LDH secreted into the supernatant was then determined colorimetrically.

CCCCCCCCCCCCOS(=O)(=O)[O-].[Na+] [SLS, Sodium Lauryl Sulfate]
IL-1α Sample/Untreated ratio [1]: 2.3 | RANTES Sample/Untreated ratio [2]: 6.7 | IL-1a Sample:Untreated ratio [3]: 2.3 | IL-1a assayed quantity [3]: (61 pg/mL) | Viability % ([4]; 0.5% SLS positive control (6 hours)): 82.1% | Viability % ([4]; 2% SLS positive control, mean of 3 replicates): 0.9% | IL-8 Sample:Untreated ratio [5]: 3.2 | IL-8 assayed quantity [5]: (453 pg/mL) | IL-1β Sample/Untreated ratio [6]: 0.8 | VEGF Sample/Untreated ratio [7]: 1.9

C[C@H]1C[C@H]2[C@@H]3CCC4=CC(=O)C=C[C@]4(C)[C@@]3(F)[C@@H](O)C[C@]2(C)[C@@]1(O)C(=O)CO [betamethasone]
Membrane integrity (%) ([8]; 0.5% SLS (6 hours) + 0.5% betamethasone (20 hours)): 110.7%

CC(C)=CCC[C@](C)(O)C1CC=C(C)CC1 (stereo partly drawn) [bisabolol]
Membrane integrity (%) ([8]; 0.5% SLS (6 hours) + 0.5% bisabolol (20 hours)): 16.8%
